How the values were obtained:
T cell = system: T cell; set-up: method as in PMID 25277199, PMID 24134186; conditions: ref [38], [50]; cited from earlier work
recombinant hGal-7 [1] = assay: Disruption of hGal-7 homodimers, native gel electrophoresis/Western blot; assay type: biochemical, human; conditions: for disruption of hGal-7 homodimers by biotinylated peptide: 0.5 μM hGal-7, 20 mM potassium phosphate pH 7.1, 60 min at 4°C, low SDS-PAGE Western blot, representative of two independent experiments
Text: To measure the ability of the peptides to disrupt the formation of hGal-7 dimers, we used mild denaturing native gel electrophoresis, a commonly used approach to visualize monomer-dimer equilibrium (Fig. 1A and Supplementary Fig. S1). […] This specificity at disrupting hGal-7 dimer formation is provided by distinct three-dimensional arrangements between otherwise very similar galectin homologues. Indeed, while all monomeric galectins reveal identical topologies, dimer formation in hGal-7 proceeds through a “back-to-back” topology of the monomers while other galectins, including hGal-1 and hGal-2, adopt a “side-by-side” structural arrangement (Fig. 1B). This structural organization provides additional means to specifically target and disrupt galectin function.
Incubation of the recombinant B. hGal-1 and C. hGal-2 with hGal-7(129–135) was performed in the same potassium phosphate buffer. The effect of hGal-7(129–135) on the monomeric and dimeric forms of hGal-7/hGal-1/hGal-2 was assessed by Western blotting in native conditions with respective antibodies. The hGal-1/hGal-2 films were overexposed. PACAP28–38 was the control peptide used in order to ensure the specificity of hGal-7(129–135). Recombinant hGal-7 (0.5 μM) was also incubated with increasing concentrations of hGal-7(129–135) in 0.1 mM D. lactose or E. LacNac solutions. Results are representative of three independent experiments.
Human Gal-7 cDNA was cloned into pET-22b(+) using NdeI and HindIII restriction enzymes. Human pET-Gal-1 vector was generously donated by Dr. S. Sato (McGill University, QC, Canada). The proteins were produced in E. coli BL21 (DE3) cells at 37°C. Isopropyl β-D-1-thiogalactopyranoside (IPTG) (1 mM) was added to the bacterial culture at OD600nm = 0.6–0.7 and then incubated for 4 h at 37°C to allow protein production. Bacterial pellets were resuspended in lysis buffer (0.7 mg/mL lysozyme, 10 mM Tris pH 8, 100 mM NaCl, 1 mM EDTA, 1 mM DTT and a protease inhibitor cocktail) and then incubated for 1 h at 37°C prior to centrifugation for 30 min at 15,000 × g (4°C). The supernatant was then filtered with 500 mL bottle top filter ([…]) (Corning, New York, NY, USA) and then ran through a lactose-agarose column (Sigma, St. Louis, MO, USA). The protein was eluted in 1 mL fractions with 150 mM lactose solution. Purified fractions were analyzed by SDS-PAGE. The hGal-7 was then concentrated and purified using Centrifugal filter units (Amicon Ultra-15, 10K) (EMD, Millipore, Etobicoke, ON) in 20 mM potassium phosphate at pH 7.1. All subsequent experiments with the recombinant proteins were performed in the same buffer solution unless mentioned otherwise. Brilliant Coomassie blue was purchased from BioRad (Bio-Rad Laboratories, Mississauga, ON, Canada). The recombinant protein hGal-2 was purchased from MyBiosource (San Diego, CA, USA). […]
gaI-7 (0.5 μM) was incubated with increasing concentrations of biotin-labeled hGaI-7129–135 in 20 mM potassium phosphate buffer (pH 7.1) for 60 min at 4°C beforeWestern blot analysis in low SDS-PAGE using an anti-gaI-7 antibody. B. Similar experiments were carried out using recombinant human B. gaI-1 and C. gaI-2. Results are representative of two independent experiments.
(also on this page, place not known: www.impactjournals.com/oncotarget/ Oncotarget, Materials 2015 Supplementary hGaI-7 129–135.)

hGal-2 = assay: Binding to hGal-2; set-up: species or system human; conditions: biotinylated peptide; Supplementary Fig. S2 quoted
recombinant hGal-1 = conditions: hGal-1 10 μg/ml coated; unlabeled peptide (1 mM) 60 min, then biotin-labeled peptide 120 min, room temperature; Streptavidin R-phycoerythrin fluorescence; three independent experiments
recombinant hGal-7 [2] = assay: Solid phase fluorescent binding assay on hGal-7; set-up: species or system human; conditions: hGal-7 10 μg/ml coated, unlabeled peptide (1 mM) 60 min, then biotin-labeled peptide 120 min, room temperature, Streptavidin R-phycoerythrin fluorescence, three independent experiments
Text: Results are representative of three independent experiments. Error bars represent standard deviation.

Gal-7: human galectin-7
effects on T cell functions and survival (T cell): strong cytotoxic and inhibitory effects on T cell functions and survival

H-IRPGTVLRIRGLV-NH2 [hGal-7(13–25), peptide corresponding to hGal-7 segment between residues 13–25]
disruption of hGal-7 homodimers (in words) (recombinant hGal-7 [1]; 0.5 μM recombinant hGal-7, 20 mM potassium phosphate pH 7.1, 1 h at 4°C, native PAGE, Western blot): less potent than hGal-7(129–135) to disrupt hGal-7 homodimers

biotinylated hGal-7(129–135): biotinylated version of hGal-7(129–135), Biotin-NHS coupled via Ahx linker
binding to hGal-2 (hGal-2): not hGal-1 or hGal-2
binding to immobilized hGal-1 (recombinant hGal-1): not hGal-1 or hGal-2
disruption of hGal-7 homodimers by biotinylated peptide (recombinant hGal-7 [1]): still capable of specifically inhibiting the formation of hGal-7 homodimers
disruption of hGal-7 homodimers by biotinylated peptide (recombinant hGal-7 [1]; listed as biotin-labeled hGaI-7129–135): Disruption of hGaI-7 dimer
binding to immobilized hGal-7 (recombinant hGal-7 [2]): could bind hGal-7
binding to immobilized hGal-7 (recombinant hGal-7 [2]; listed as biotin-labeled hGal-7(129–135)): dose-dependent interaction

Reference: publication PMC4747383, “Design of a peptidic inhibitor that targets the dimer interface of a prototypic galectin” (Oncotarget, 2015)
